Assay results: patent US20040116336A1, “Peptide derivatives” (priority 2002, published 2004)
Non-standard residues stand in square brackets, D forms with d. Residues, ends and D or L forms follow the SMILES beside them. No end group written: not given here. Phe(4-Cl) = N[C@@H](Cc1ccc(Cl)cc1)C(=O)O; Cha = N[C@@H](CC1CCCCC1)C(=O)O

Experiments:
APJ [1] = target: T1, APJ (Homo sapiens, UniProt P35414); assay: Inhibitory activity on forskolin-stimulated cAMP production in CHO-A10 clone 6 cells; assay type: cell-based; conditions: read-out: EC50
T1 construct: expressed in transfected cells; host or cells: CHO (CHO-A10; clone 6 for the cAMP assay)
T1 sequence (P35414 1-380): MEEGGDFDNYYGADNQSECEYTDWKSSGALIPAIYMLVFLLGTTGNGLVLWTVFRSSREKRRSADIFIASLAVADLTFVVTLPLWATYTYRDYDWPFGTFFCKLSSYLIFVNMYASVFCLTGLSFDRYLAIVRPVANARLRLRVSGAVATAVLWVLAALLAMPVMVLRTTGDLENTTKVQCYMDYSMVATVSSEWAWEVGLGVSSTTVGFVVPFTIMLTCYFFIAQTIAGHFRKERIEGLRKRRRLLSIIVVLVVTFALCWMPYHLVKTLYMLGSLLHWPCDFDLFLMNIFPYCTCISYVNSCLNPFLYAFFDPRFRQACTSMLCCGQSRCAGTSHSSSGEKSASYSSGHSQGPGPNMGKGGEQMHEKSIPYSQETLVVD
Protocol: Measurement of an Inhibitory Activity on Forskolin-Stimulated cAMP Production
Hanks' balanced salt solution (HBSS) containing 0.2 mM 3-isobutyl-1-methylxanthine (IBMX) and 0.05% bovine serum albumin was prepared as an assay buffer, and each well was washed twice with 500 μl assay buffer and pre-incubated at 37° C. for 30 minutes. Further, each well was washed once with 500 μl assay buffer, and a sample dissolved in the assay buffer containing 1 μM forskolin was added at a volume of 500 μl/well and incubated at 37° C. for 30 minutes. Wells incubated with the assay buffer not containing forskolin were prepared in the same manner in order to determine the basal level of cellular cAMP production, while wells incubated with the assay buffer containing forskolin were also prepared in order to determine the maximum level of cAMP production stimulated with forskolin. After incubation was finished, each well was washed once with 500 μl assay buffer, and 500 μl lysis buffer 1B attached to a cAMP EIA system from Amersham was added to each well, to extract cAMP. According to the protocol of the kit, 100 μl of each extract was used to determine the level of cAMP. For the inhibitory activity of the sample on cAMP production, the difference (inhibited cAMP production) between the maximum level and the level of cAMP in the sample-containing wells was determined, and the inhibitory activity was expressed as percentage relative to the increased level of cAMP production stimulated with forskolin (that is, the difference between the maximum level and basal level), and from this dose-reaction curve, the EC50 was determined.

APJ [2] = target: T1, APJ; assay: Receptor binding assay-1 (125I-labeled compound in Reference Example 1, CHO-A10 membrane fraction); conditions: 125I-labeled compound in Reference Example 1 at 100 pM, room temperature […]
Protocol: (§1) This product was mixed with an equal volume of an assay buffer (50 mM Tris-HCl/pH 7.5, 5 mM EDTA, 0.5 mM PMSF, 20 μg/ml leupeptin, 0.1 μg/ml pepstatin A, 4 μg/ml E-64 (Peptide Research Laboratory, Co.), 0.1% bovine serum albumin) and stored at −30° C. before use.
(§2) CHO-A10 cells were cultured, recovered with PBS containing 5 mM EDTA from a culture vessel, and suspended in the above-mentioned assay buffer not containing bovine serum albumin. The cells were homogenized 3 times at 12,000 rpm for 15 seconds by a Polytron homogenizer (manufactured by Kinematica Inc.) and then centrifuged (1000×g, 4° C., 10 minutes), and the supernatant was recovered. The precipitates were subjected again to the same procedure as above, and the respective supernatants were combined and centrifuged at 100,000×g, 4° C. for 1 hour, to recover precipitates (membrane fraction). The membrane fraction was suspended again in a small amount of the buffer, homogenized with a Teflon homogenizer and stored at −80° C. before use.
(§3) Binding assay was carried out under the following conditions. […] Measurement of non-specific binding was carried out using a well containing 1 μM unlabeled compound in place of the test sample. After the incubation was finished, a cell harvester (Packard) adapted to 96 wells and a filter unit (GF/C, Packard) were used for separation thereby capturing the membrane fraction on the filter. After the filter was sufficiently dried, Microcinti 0 (Packard) was added thereto, and using Top Count (Packard), the amount of the labeled material captured together with the membrane fraction on the filter was measured.

APJ [3] = target: T1, APJ; assay: Receptor binding assay-2 (compound in Reference Example 2 used); conditions: compound in Reference Example 2 used as ligand; read-out: IC50
Protocol: as §1, §2, §3

EC50 (APJ [1]) [nM] | IC50 (APJ [2]) [nM] | IC50 (APJ [3]) [nM] | Compound
0.46 | 8 | 0.13 | CC(C)C[C@H](NC(=O)[C@H](CCCNC(=N)N)NC(=O)[C@@H]1CCCN1C(=O)[C@@H](N)CCCNC(=N)N)C(=O)N[C@@H](Cc1ccccc1)C(=O)N[C@@H](Cc1c[nH]cn1)C(=O)N[C@@H](CCCCN)C(=O)NCC(=O)N1CCC[C@H]1C(=O)N[C@@H](CC1CCCCC1)C(=O)N1CCC[C@H]1C(=O)N[C@@H](Cc1ccccc1)C(=O)O [Compound in Ex. 15] (H-RPRLFHKGP[Cha]PF-OH; N-terminus and C-terminus assumed)
0.53 | 0.47 | 0.33 | CC(C)C[C@H](NC(=O)[C@H](CCCNC(=N)N)NC(=O)[C@@H]1CCCN1C(=O)[C@H](CCCNC(=N)N)NC(=O)[C@H](CCC(N)=O)NC(=O)[C@H](CCCNC(=N)N)NC(=O)[C@@H](N)CCCNC(=N)N)C(=O)N[C@@H](CO)C(=O)N[C@@H](Cc1c[nH]cn1)C(=O)N[C@@H](CCCCN)C(=O)NCC(=O)N1CCC[C@H]1C(=O)N[C@@H](CC1CCCCC1)C(=O)N1CCC[C@H]1C(=O)N[C@@H](Cc1ccc(Cl)cc1)C(=O)O [Compound in Ex. 2]
0.31 | 9.2 | 0.09 | CSCC[C@H](NC(=O)[C@@H]1CCCN1C(=O)CNC(=O)[C@H](CCCCN)NC(=O)[C@H](Cc1c[nH]cn1)NC(=O)[C@H](CO)NC(=O)[C@H](CC(C)C)NC(=O)[C@H](CCCNC(=N)N)NC(=O)[C@@H]1CCCN1C(=O)[C@H](CCCNC(=N)N)NC(=O)[C@H](CCCCN)NC(=O)[C@H](CCCNC(=N)N)NC(=O)[C@@H](N)CCCNC(=N)N)C(=O)N1CCC[C@H]1C(=O)N[C@@H](Cc1ccccc1)C(=O)O [Compound in Ex. 23]
1.2 | 2.3 | 0.38 | CC(C)C[C@H](NC(=O)[C@H](CCCNC(=N)N)NC(=O)[C@@H]1CCCN1C(=O)[C@@H](N)CCCNC(=N)N)C(=O)N[C@@H](Cc1ccccc1)C(=O)N[C@@H](C)C(=O)N[C@@H](CCCNC(=N)N)C(=O)NCC(=O)N1CCC[C@H]1C(=O)N[C@@H](CC1CCCCC1)C(=O)N1CCC[C@H]1C(=O)N[C@@H](Cc1ccc(Cl)cc1)C(=O)O [Compound in Ex. 12] (H-RPRLFARGP[Cha]P[Phe(4-Cl)]-OH)
0.51 | 1.2 | 0.13 | CC(C)C[C@H](NC(=O)[C@H](CCCNC(=N)N)NC(=O)[C@@H]1CCCN1C(=O)[C@@H](N)CCCNC(=N)N)C(=O)N[C@@H](CO)C(=O)N[C@@H](C)C(=O)N[C@@H](CCCNC(=N)N)C(=O)NCC(=O)N1CCC[C@H]1C(=O)N[C@@H](CC1CCCCC1)C(=O)N1CCC[C@H]1C(=O)N[C@@H](Cc1ccc(Cl)cc1)C(=O)O [Compound in Ex. 5] (H-RPRLSARGP[Cha]P[Phe(4-Cl)]-OH)
0.28 | 2.7 | 0.027 | CCCC[C@H](NC(=O)[C@@H]1CCCN1C(=O)CNC(=O)[C@H](CCCCN)NC(=O)[C@H](Cc1c[nH]cn1)NC(=O)[C@H](CO)NC(=O)[C@H](CC(C)C)NC(=O)[C@H](CCCNC(=N)N)NC(=O)[C@@H]1CCCN1C(=O)[C@H](CCCNC(=N)N)NC(=O)[C@H](CCC(N)=O)NC(=O)[C@H](CCCNC(=N)N)NC(=O)[C@@H](N)CCCNC(=N)N)C(=O)N1CCC[C@H]1C(=O)N[C@@H](Cc1ccc(O)cc1)C(=O)O [Compound in Ex. 14]
0.38 | 8 | 0.066 | CSCC[C@H](NC(=O)[C@@H]1CCCN1C(=O)CNC(=O)[C@H](CCCCN)NC(=O)[C@H](Cc1c[nH]cn1)NC(=O)[C@H](Cc1ccccc1)NC(=O)[C@H](CC(C)C)NC(=O)[C@H](CCCNC(=N)N)NC(=O)[C@@H]1CCCN1C(=O)[C@@H](N)CCCNC(=N)N)C(=O)N1CCC[C@H]1C(=O)N[C@@H](Cc1ccc(Cl)cc1)C(=O)O [Compound in Ex. 16] (H-RPRLFHKGPMP[Phe(4-Cl)]-OH; N-terminus and C-terminus assumed)
1 | 2.7 | 0.29 | CC(C)C[C@H](NC(=O)[C@H](CCCNC(=N)N)NC(=O)[C@@H]1CCCN1C(=O)[C@@H](N)CCCNC(=N)N)C(=O)N[C@@H](Cc1ccccc1)C(=O)N[C@@H](Cc1c[nH]cn1)C(=O)N[C@@H](CCCCN)C(=O)NCC(=O)N1CCC[C@H]1C(=O)N[C@@H](CC1CCCCC1)C(=O)N1CCC[C@H]1C(=O)N[C@@H](Cc1ccc(Cl)cc1)C(=O)O [Compound in Ex. 13] (H-RPRLFHKGP[Cha]P[Phe(4-Cl)]-OH; N-terminus and C-terminus assumed)
0.57 | 2.9 | 0.84 | CSCC[C@H](NC(=O)[C@@H]1CCCN1C(=O)CNC(=O)[C@H](CCCCN)NC(=O)[C@H](Cc1c[nH]cn1)NC(=O)[C@H](CO)NC(=O)[C@H](CC(C)C)NC(=O)[C@H](CCCNC(=N)N)NC(=O)[C@@H]1CCCN1C(=O)[C@H](CCCNC(=N)N)NC(=O)[C@H](CCCCNC(=O)[C@H](CCCNC(=N)N)NC(=O)[C@@H](N)CCCNC(=N)N)NC(=O)[C@H](CCCNC(=N)N)NC(=O)[C@@H](N)CCCNC(=N)N)C(=O)N1CCC[C@H]1C(=O)N[C@@H](Cc1ccccc1)C(=O)O [Compound in Ex. 21]
0.59 | 2.2 | 0.084 | CC(C)C[C@H](NC(=O)[C@H](CCCNC(=N)N)NC(=O)[C@@H]1CCCN1C(=O)[C@@H](N)CCCNC(=N)N)C(=O)N[C@@H](CO)C(=O)N[C@@H](C)C(=O)N[C@@H](CCCNC(=N)N)C(=O)NCC(=O)N1CCC[C@H]1C(=O)N[C@@H](CC1CCCCC1)C(=O)N1CCC[C@H]1C(=O)N[C@@H](Cc1ccccc1)C(=O)O [Compound in Ex. 11] (H-RPRLSARGP[Cha]PF-OH; N-terminus and C-terminus assumed)
1.1 | – | 0.37 | CSCC[C@H](NC(=O)[C@@H]1CCCN1C(=O)CNC(=O)[C@H](CCCCN)NC(=O)[C@H](Cc1c[nH]cn1)NC(=O)[C@H](CO)NC(=O)[C@H](CC(C)C)NC(=O)[C@H](CCCNC(=N)N)NC(=O)[C@@H]1CCCN1C(=O)[C@H](CCCNC(=N)N)NC(=O)[C@H](Cc1ccccc1)NC(=O)[C@H](CCCNC(=N)N)NC(=O)[C@@H](N)CCCNC(=N)N)C(=O)N1CCC[C@H]1C(=O)N[C@@H](Cc1ccccc1)C(=O)O [Compound in Ex. 33]
0.58 | – | 0.22 | CC(C)C[C@H](NC(=O)[C@H](CCCNC(=N)N)NC(=O)[C@@H]1CCCN1C(=O)[C@@H](N)CCCNC(=N)N)C(=O)N[C@@H](CO)C(=O)N[C@@H](Cc1c[nH]cn1)C(=O)N[C@@H](C)C(=O)NCC(=O)N1CCC[C@H]1C(=O)N[C@@H](CC1CCCCC1)C(=O)N1CCC[C@H]1C(=O)N[C@@H](Cc1ccc(Cl)cc1)C(=O)O [Compound in Ex. 56] (H-RPRLSHAGP[Cha]P[Phe(4-Cl)]-OH; N-terminus and C-terminus assumed)
0.37 | – | 0.064 | CC(C)C[C@H](NC(=O)[C@H](CCCNC(=N)N)NC(=O)[C@@H]1CCCN1C(=O)[C@@H](N)CCCNC(=N)N)C(=O)N[C@@H](CO)C(=O)N[C@@H](C)C(=O)N[C@@H](CCCNC(=N)N)C(=O)NCC(=O)N1CCC[C@H]1C(=O)N[C@@H](C)C(=O)N1CCC[C@H]1C(=O)N[C@@H](Cc1ccc(Cl)cc1)C(=O)O [Compound in Ex. 53] (H-RPRLSARGPAP[Phe(4-Cl)]-OH; N-terminus and C-terminus assumed)
0.36 | – | 1.8 | RPRLFARGPMF [Compound in Ex. 47]
